Values of other authors as cited in patent US20040033532A1, “Use of three-dimensional crystal structure coordinates to design and synthesize domain-selective inhibitors for angiotensin-converting enzyme (ACE)” (priority 2002, published 2004).
“Also recorded” adds a separate entry of the source. Read-outs that look alike come from different tables or passages of the source.

Tests used:
[1] = biological target: T1, rabbit liver ACE (Oryctolagus cuniculus, UniProt P12822)
T1 construct: rabbit liver ACE in vitro; from tissue; host or cells: rabbit liver
T1 sequence (P12822 34-1310): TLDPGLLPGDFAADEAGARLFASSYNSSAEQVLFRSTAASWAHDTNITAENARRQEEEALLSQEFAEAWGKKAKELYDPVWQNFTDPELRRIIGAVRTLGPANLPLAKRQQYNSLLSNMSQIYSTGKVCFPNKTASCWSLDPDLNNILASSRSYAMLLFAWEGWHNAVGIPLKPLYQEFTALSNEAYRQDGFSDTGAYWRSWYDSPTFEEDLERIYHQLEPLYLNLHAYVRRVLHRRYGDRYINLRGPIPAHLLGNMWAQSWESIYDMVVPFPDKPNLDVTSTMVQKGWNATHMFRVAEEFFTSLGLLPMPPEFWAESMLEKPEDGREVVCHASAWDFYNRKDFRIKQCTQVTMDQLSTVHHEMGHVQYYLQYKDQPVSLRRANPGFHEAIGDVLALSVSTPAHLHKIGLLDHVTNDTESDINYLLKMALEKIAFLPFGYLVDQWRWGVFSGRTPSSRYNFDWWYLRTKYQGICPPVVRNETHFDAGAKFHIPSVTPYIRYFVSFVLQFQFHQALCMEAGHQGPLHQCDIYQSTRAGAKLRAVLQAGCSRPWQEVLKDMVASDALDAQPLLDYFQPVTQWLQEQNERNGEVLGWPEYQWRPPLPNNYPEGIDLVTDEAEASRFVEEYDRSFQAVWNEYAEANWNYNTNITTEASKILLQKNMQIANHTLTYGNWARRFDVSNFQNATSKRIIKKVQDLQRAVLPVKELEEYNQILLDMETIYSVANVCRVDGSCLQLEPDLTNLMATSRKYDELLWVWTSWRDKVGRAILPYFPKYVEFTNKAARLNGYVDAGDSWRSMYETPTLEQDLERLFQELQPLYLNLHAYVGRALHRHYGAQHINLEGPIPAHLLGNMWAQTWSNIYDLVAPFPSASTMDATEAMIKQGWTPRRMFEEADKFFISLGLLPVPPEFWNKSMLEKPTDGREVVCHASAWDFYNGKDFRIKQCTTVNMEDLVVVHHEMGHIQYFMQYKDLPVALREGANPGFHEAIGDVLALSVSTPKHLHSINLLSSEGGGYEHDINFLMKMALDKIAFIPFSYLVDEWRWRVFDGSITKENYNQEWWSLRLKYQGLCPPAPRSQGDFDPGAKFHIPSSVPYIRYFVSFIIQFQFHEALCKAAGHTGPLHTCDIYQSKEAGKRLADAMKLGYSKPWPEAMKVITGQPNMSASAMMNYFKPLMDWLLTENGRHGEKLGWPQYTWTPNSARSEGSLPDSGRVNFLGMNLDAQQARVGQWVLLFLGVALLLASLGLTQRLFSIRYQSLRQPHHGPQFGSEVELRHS

[2] = biological target: ACE (Homo sapiens, UniProt P12821)
[3] = tested on: ACE N domain and C domain active sites; details: N domain vs C domain

Sequence of ACE (P12821 30-1306, species assumed): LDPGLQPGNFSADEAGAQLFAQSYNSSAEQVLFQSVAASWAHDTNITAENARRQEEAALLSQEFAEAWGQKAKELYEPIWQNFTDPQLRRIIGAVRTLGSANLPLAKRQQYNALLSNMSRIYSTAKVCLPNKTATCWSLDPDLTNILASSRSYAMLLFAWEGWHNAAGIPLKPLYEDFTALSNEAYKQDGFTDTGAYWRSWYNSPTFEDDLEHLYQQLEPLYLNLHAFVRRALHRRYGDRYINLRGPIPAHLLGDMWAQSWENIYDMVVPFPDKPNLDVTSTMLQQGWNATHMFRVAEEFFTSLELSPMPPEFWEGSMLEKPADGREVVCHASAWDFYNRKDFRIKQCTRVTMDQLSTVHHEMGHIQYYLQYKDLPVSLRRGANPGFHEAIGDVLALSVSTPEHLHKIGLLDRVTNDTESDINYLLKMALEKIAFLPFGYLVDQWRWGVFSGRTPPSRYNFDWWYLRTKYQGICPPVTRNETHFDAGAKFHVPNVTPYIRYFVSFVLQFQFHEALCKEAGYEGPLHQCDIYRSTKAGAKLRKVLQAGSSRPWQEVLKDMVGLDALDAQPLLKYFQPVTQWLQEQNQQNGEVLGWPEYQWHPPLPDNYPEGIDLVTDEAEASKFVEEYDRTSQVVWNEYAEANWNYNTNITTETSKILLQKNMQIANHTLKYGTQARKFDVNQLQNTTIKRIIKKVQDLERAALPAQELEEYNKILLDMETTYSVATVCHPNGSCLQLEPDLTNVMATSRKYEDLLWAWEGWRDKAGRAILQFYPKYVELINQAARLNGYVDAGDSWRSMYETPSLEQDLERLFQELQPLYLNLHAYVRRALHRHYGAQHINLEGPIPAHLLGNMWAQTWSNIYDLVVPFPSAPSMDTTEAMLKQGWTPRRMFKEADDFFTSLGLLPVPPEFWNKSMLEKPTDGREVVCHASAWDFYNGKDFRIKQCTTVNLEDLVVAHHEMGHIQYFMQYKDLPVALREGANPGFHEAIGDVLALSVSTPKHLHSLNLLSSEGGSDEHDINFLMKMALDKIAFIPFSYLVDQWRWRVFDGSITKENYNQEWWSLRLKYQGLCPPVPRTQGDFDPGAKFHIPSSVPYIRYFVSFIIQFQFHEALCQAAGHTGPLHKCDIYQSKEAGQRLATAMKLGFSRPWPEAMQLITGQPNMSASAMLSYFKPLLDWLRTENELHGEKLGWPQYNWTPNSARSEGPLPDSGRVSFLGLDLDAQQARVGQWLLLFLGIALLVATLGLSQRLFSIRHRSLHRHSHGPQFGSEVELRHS

C[C@H](NC(=O)/C=C/c1ccccc1)C(=O)N1CCC[C@H]1C(=O)O [Compound 1]
IC50 ([1]; Hip-His-Leu hydrolysis, rabbit liver ACE, in vitro): 230000 nM | enzyme activity remaining ([1]; after 10 minutes of incubation with 0.4 mM of inhibitor): ~50% | recovery of enzyme activity after dialysis ([1]; after dialysis): could not be recovered

CN(CC(=O)NO)C(=O)[C@@H]1CCCC[C@@H]1C(=O)O [Compound 2]
IC50 ([2]; Hip-Gly-Gly as substrate): 7 nM | Ki ([2]; competitive inhibitor of ACE): 2.7 ± 0.2 nM

O=C(N[C@@H](Cc1ccccc1)C(=O)CCC(=O)N1CCC[C@H]1C(=O)O)c1ccccc1 [keto-ACE, Bz-Phe Ψ (CO—CH2)Gly-Pro]
domain selectivity of ACE inhibition (in words) [3]: more effective inhibitors of the C domain; also recorded: C-domain specific inhibitor

Angiotensin (1-7) [Asp^1-Pro^7] (DRVYIHP; Angiotensin 1-7; UniProt P01019 25-31, looked up, fragment) [peptide Asp1-Pro7 of angiotensin]
domain selectivity of ACE inhibition (in words) [3]: more effective inhibitors of the C domain

Ac-Asp-Phe-Ψ(PO2—CH2)-Ala-Ala-NH2
domain selectivity of ACE inhibition (in words) [3]: far better inhibitor of the N domain | domain selectivity of ACE inhibition (in words) ([3]; listed as Ac-Asp-Phe-Ψ(PO2—CH2)-Ala-Ala): far better inhibitor of the N-domain
